Source: patent US6440984B1, “Use of aryl-substituted pyrimidines as insecticidal and acaricidal agents” (BASF Aktiengesellschaft, priority 1998, dated 2002)

Assays:
[1] = test system: Spodoptera Eridania, 3rd Instar Larvae, Southern Armyworm (SAW); test: Southern armyworm (SAW) leaf-dip test, observations at 5 days; type: in vivo; settings: Southern Army Worm, rating scale; for pest or weed control at 1000 ppm: Spodoptera eridania, foliar, 120 h, read-out: SAW 2^ND-FOLIAR 1000 (ppm)
Method: (§1) Test solutions are prepared by dissolving the test compound in a 35% acetone in water mixture to give a concentration of 10,000 ppm. Subsequent dilutions are made with water as needed.
Spodoptera Eridania, 3rd Instar Larvae, Southern Armyworm (SAW)
A Sieva lima bean leaf expanded to 7-8 cm in length is dipped in the test solution with agitation for 3 seconds and allowed to dry in a hood. The leaf is then placed in a 100×10 mm petri dish containing a damp filter paper on the bottom and ten 3rd instar caterpillars. At 5 days, observations are made of mortality, reduced feeding, or any interference with normal molting.

[2] = test system: Tetranychus Urticae (OP-resistant strain), 2-spotted Spider Mite (TSM); test: Two-spotted spider mite (TSM) plant-dip test, mortality after 2 days; type: in vivo; settings: rating scale; for pest or weed control at 300 ppm: Tetranychus urticae, 48 h, read-out: TSM AD-FOLIAR 300 (ppm)
Method: as §1
Tetranychus Urticae (OP-resistant strain), 2-spotted Spider Mite (TSM)
Sieva lima bean plants with primary leaves expanded to 7-8 cm are selected and cut back to one plant per pot. A small piece is cut from an infested leaf taken from the main colony and placed on each leaf of the test plants. This is done about 2 hours before treatment to allow the mites to move over to the test plant to lay eggs. The size of the cut, infested leaf is varied to obtain about 100 mites per leaf. At the time of test treatment, the piece of leaf used to transfer the mites is removed and discarded. The newly-infested plants are dipped in the test solution for 3 seconds with agitation and set in the hood to dry. After 2 days, one leaf is removed and mortality counts are made.

[3] = test system: Aphis Fabae, Mixed Instar, Bean Aphid (BA); test: Bean aphid (BA) foliar spray test, mortality after 2 days; type: in vivo; settings: rating scale; for pest or weed control at 300 ppm: Aphis fabae, 48 h, read-out: BA AD-FOLIAR 300 (ppm)
Method: as §1
Aphis Fabae, Mixed Instar, Bean Aphid (BA)
(§2) Pots containing single nasturtium plants (Tropaeolum sp.) about 5 cm tall are infested with about 100-200 aphids one day before the test. Each pot is sprayed with the test solution for 2 revolutions of a 4 rpm turntable in a hood. The spray is directed to give complete coverage of the plants and aphids. The sprayed pots are set on their sides on white trays and held for 2 days, following which mortality estimates are made. Essentially the same method is used with respect to cotton aphid (CA).

[4] = test system: Diabrotica Virgifera Virgifera Leconte, 3rd Instar Western Corn Rootworm (WCR); test: Western corn rootworm (WCR) soil test, mortality at 5 days; type: in vivo; settings: rating scale; for pest or weed control at 50 ppm: Diabrotica virgifera, 120 h, read-out: WCR 2^ND-SOIL 50 (ppm)
Method: Diabrotica Virgifera Virgifera Leconte, 3rd Instar Western Corn Rootworm (WCR) One cc of fine talc is placed in a 30 mL wide-mouth screw-top glass jar. One mL of the appropriate acetone test solution is pipetted onto the talc so as to provide 1.25 mg of active ingredient per jar. The jars are set under a gentle air flow until the acetone is evaporated. The dried talc is loosened, 1 cc of millet seed is added to serve as food for the insects and 25 mL of moist soil is added to each jar. The jar is capped and the contents thoroughly mixed mechanically. Following this, ten 3rd instar rootworms are added to each jar and the jars are loosely capped to allow air exchange for the larvae. The treatments are held for 5 days when mortality counts are made. Missing larvae are presumed dead, since they decompose rapidly and can not be found. The concentrations of active ingredient used in this test correspond approximately to 50 kg/ha.

[5] = test system: Cotton Aphid (CA); test: Cotton aphid (CA) foliar spray test, essentially the bean aphid method; type: in vivo; settings: rating scale
Method: as §1, §2

Structure (SMILES) | TSM AD-FOLIAR 300 (ppm) [2] | BA AD-FOLIAR 300 (ppm) [3] | WCR 2^ND-SOIL 50 (ppm) [4] | CA-FOLIAR 300 (ppm) [5] | also measured
FC(F)(F)c1cccc(Oc2nccc(-c3ccccc3)n2)c1 [Compound 5] | B (B 45-75% kill) | A (A 0-45% kill) | C (C 76-100% kill) | – | SAW 2^ND-FOLIAR 1000 (ppm) [1]: A (A 0-45% kill)
CCc1ccc(-c2ccnc(Oc3ccc(Cl)c(Cl)c3)n2)cc1 [Compound 12] | C (C 76-100% kill) | – | C (C 76-100% kill) | – | SAW 2^ND-FOLIAR 1000 (ppm) [1]: C (C 76-100% kill)
Fc1ccc(-c2ccnc(Oc3ccc(F)c(C(F)(F)F)c3)n2)cc1 [Compound 22, 2-(3-Trifluoromethyl-4-fluorophenoxy)-4-(4-fluorophenyl)pyrimidine] | – | – | – | – | pest or weed control at 1000 ppm [1]: 0 to 45%; pest or weed control at 300 ppm [2]: 0 to 45%; pest or weed control at 300 ppm [3]: 45 to 75%; pest or weed control at 50 ppm [4]: 76 to 100%
Fc1ccc(Oc2nccc(-c3cccc(OC(F)(F)F)c3)n2)cc1C(F)(F)F [Compound 37] | A (A 0-45% kill) | A (A 0-45% kill) | B (B 45-75% kill) | – | SAW 2^ND-FOLIAR 1000 (ppm) [1]: C (C 76-100% kill)
FC(F)(F)Oc1cccc(-c2ccnc(Oc3cccc(C(F)(F)F)c3)n2)c1 [Compound 38] | A (A 0-45% kill) | A (A 0-45% kill) | C (C 76-100% kill) | – | –
FC(F)(F)Oc1cccc(-c2ccnc(Oc3cc(C(F)(F)F)cc(C(F)(F)F)c3)n2)c1 [Compound 42] | C (C 76-100% kill) | B (B 45-75% kill) | B (B 45-75% kill) | – | –
FC(F)(F)Oc1cccc(-c2ccnc(Oc3ccc(Cl)c(Cl)c3)n2)c1 [Compound 43] | C (C 76-100% kill) | C (C 76-100% kill) | C (C 76-100% kill) | – | –
Fc1ccc(Oc2nccc(-c3ccc(OC(F)(F)F)cc3)n2)cc1Cl [Compound 55] | A (A 0-45% kill) | A (A 0-45% kill) | C (C 76-100% kill) | – | SAW 2^ND-FOLIAR 1000 (ppm) [1]: A (A 0-45% kill)
FC(F)(F)c1cc(-c2ccnc(Oc3ccccc3)n2)cc(Cl)c1Cl [Compound 63] | A (A 0-45% kill) | A (A 0-45% kill) | – | C (C 76-100% kill) | –
Fc1cccc(Oc2nccc(-c3cc(Cl)c(Cl)c(C(F)(F)F)c3)n2)c1 [Compound 64] | A (A 0-45% kill) | – | C (C 76-100% kill) | A (A 0-45% kill) | –
Fc1ccc(Oc2nccc(-c3cccc(Cl)c3)n2)cc1C(F)(F)F [Compound 66] | A (A 0-45% kill) | – | C (C 76-100% kill) | A (A 0-45% kill) | –
FC(F)(F)c1cccc(Oc2nccc(-c3cccc(Cl)c3)n2)c1 [Compound 67] | A (A 0-45% kill) | – | – | C (C 76-100% kill) | –
Fc1cccc(-c2ccnc(Oc3ccc(F)c(C(F)(F)F)c3)n2)c1 [Compound 68] | B (B 45-75% kill) | – | – | C (C 76-100% kill) | –
Fc1ccc(-c2ccnc(Oc3cccc(C(F)(F)F)c3)n2)cc1C(F)(F)F [Compound 71] | A (A 0-45% kill) | C (C 76-100% kill) | – | B (B 45-75% kill) | –
Fc1cc(-c2ccnc(Oc3ccc(F)c(C(F)(F)F)c3)n2)ccc1Cl [Compound 78] | B (B 45-75% kill) | – | – | B (B 45-75% kill) | –
Fc1ccc(Oc2ncc(Cl)c(-c3ccc(Cl)c(Cl)c3)n2)cc1C(F)(F)F [Compound 93, 2-(3-Trifluoromethyl-4-fluorophenoxy)-4-(3,4-dichlorophenyl)-5-chloropyrimidine] | – | – | – | – | melting point: 90 to 92 °C
CCc1cnc(Oc2cccc(C(F)(F)F)c2)nc1-c1cccc(C(F)(F)F)c1 [Compound 157] | – | – | – | – | pest or weed control at 1000 ppm [1]: 0 to 45%; pest or weed control at 300 ppm [2]: 45 to 75%; pest or weed control at 300 ppm [3]: 45 to 75%; pest or weed control at 50 ppm [4]: 76 to 100%
CCCc1cnc(Oc2ccc(F)c(C(F)(F)F)c2)nc1-c1cccc(C(F)(F)F)c1 [Compound 160] | – | – | – | – | pest or weed control at 1000 ppm [1]: 0 to 45%; pest or weed control at 300 ppm [2]: 0 to 45%; pest or weed control at 50 ppm [4]: 76 to 100%
Cc1cnc(Oc2cccc(C(F)(F)F)c2)nc1-c1ccccc1 [Compound 163] | – | – | – | – | pest or weed control at 300 ppm [2]: 45 to 75%; pest or weed control at 300 ppm [3]: 0 to 45%; pest or weed control at 50 ppm [4]: 76 to 100%
